This note sets out measurements from patent publication US20060106075A1, “Benzothiazole derivatives having beta-2-adrenoreceptor agonist activity” (priority 2002, published 2006).

Where two headings read alike, the source gives them in different places.

As usually defined, the Ki is the equilibrium dissociation constant of an inhibitor or competing ligand from its target.

The target of this experiment is β2-adrenoceptor (Homo sapiens, UniProt P07550). As to the kind of experiment: β2-adrenoceptor binding potency, classical filtration binding assay. The text has this: Accordingly the invention also provides a compound of formula I in free or salt form for use as a pharmaceutical.
Chain of β2-adrenoceptor (P07550 whole entry, species assumed): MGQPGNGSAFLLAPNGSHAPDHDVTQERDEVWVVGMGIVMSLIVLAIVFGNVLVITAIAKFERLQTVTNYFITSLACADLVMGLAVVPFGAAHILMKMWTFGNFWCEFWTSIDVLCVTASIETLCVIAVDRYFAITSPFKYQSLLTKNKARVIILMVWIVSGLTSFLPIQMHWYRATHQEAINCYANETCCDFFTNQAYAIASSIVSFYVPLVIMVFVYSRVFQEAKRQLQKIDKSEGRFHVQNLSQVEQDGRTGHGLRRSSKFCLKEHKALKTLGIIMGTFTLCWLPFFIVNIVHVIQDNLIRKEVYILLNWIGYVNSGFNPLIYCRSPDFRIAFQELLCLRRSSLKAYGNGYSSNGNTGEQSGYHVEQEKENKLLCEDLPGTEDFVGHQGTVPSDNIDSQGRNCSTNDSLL

For the compound `COc1ccc(C[C@@H](C)NCC(O)c2ccc(O)c3[nH]c(=O)sc23)cc1` (some centres unmarked) [Example 3], the Ki is 1600 pM.

Turning to `O=c1[nH]c2c(O)ccc(C(O)CNCCc3ccc(OCCCCc4ccccc4)cc3)c2s1` (centres unmarked) [Example 1, 4-hydroxy7-(1-hydroxy-2-{2-[4-(4-phenyl-butoxy)-phenyl]-ethylamino}-ethyl)-3H-benzothiazol-2-one], the Ki (read-out: Ki (β2)) is 300 pM.
